# In US20100261690A1, “NOVEL COMBINATIONS” (ASTRAZENECA R&D, priority 2009, published 2010):
# System: LPS-induced TNFα production in human peripheral blood mononuclear cells (PBMCs)
# Assay: Inhibition of LPS-induced TNFα production in human peripheral blood mononuclear cells (AlphaLISA)
# Assay type: cell-based
# Conditions: PBMC
# Experimental: Inhibition of Lipopolysaccharride (LPS)-Induced TNFα Production in Human Peripheral Blood Mononuclear Cells
# Human isolated peripheral blood mononuclear cells (PBMCs) were pre-incubated with a range of concentrations of the GR agonist (1R,3aS,3bS,10aR,10bS,11S,12aS)-1-{[(cyanomethyl)sulfanyl]carbonyl}-7-(4-fluorophenyl)-11-hydroxy-10a,12a-dimethyl-1,2,3,3a,3b,4,5,7,10,10a,10b,11,12,12a-tetradecahydrocyclopenta[5,6]naphtho[1,2-f]indazol-1-yl furan-2-carboxylate (Compound A), alone or in the presence of a range of concentrations of a second compound with a distinct pharmacological activity for 45 minutes at 37° C. After the pre-incubation period, the cells were then incubated with LPS (5 ng/mL) for 18 hr at 37° C. to induce TNFα production. The total assay volume was 200 μL. At the end of the incubation period, 10 μL of the culture supernatant diluted 1:5 was analysed to quantify the TNFα released using AlphaLISA (PerkinElmer). The fluorescence was detected on an EnVision Alphareader. Inhibition curves were fitted using a 4-parameter logistic equation in a non-linear curve fitting routine and activity was expressed as pIC50.
# In each table, the data represents the mean of two separate experiments using PBMC from healthy blood donors (n=2).
Compound,IC50 (read-out: pIC50 for inhibition of LPS-induced TNFα production from human PBMC (converted)),"inhibition at 1 µM (Compound A 1000 nM in combination with the listed second compound at 1 μM, mean n=2, read-out: % inhibition @ 1000 nM (maximal inhibition))"
"C[C@]12Cc3cnn(-c4ccc(F)cc4)c3C=C1CC[C@@H]1[C@@H]2[C@@H](O)C[C@@]2(C)[C@H]1CC[C@]2(OC(=O)c1ccco1)C(=O)SCC#N [Compound A, (1R,3aS,3bS,10aR,10bS,11S,12aS)-1-{[(cyanomethyl)sulfanyl]carbonyl}-7-(4-fluorophenyl)-11-hydroxy-10a,12a-dimethyl-1,2,3,3a,3b,4,5,7,10,10a,10b,11,12,12a-tetradecahydrocyclopenta[5,6]naphtho[1,2-f]indazol-1-yl furan-2-carboxylate]",0.708 nM,–
"CNCCOc1ccccc1C1(Nc2nccn(-c3cc(C(=O)NC4CC4)cc(F)c3C)c2=O)CC1 [Compound E, N-cyclopropyl-3-fluoro-4-methyl-5-{3-[(1-{2-[2-(methylamino)ethoxy]phenyl}cyclopropyl)amino]-2-oxopyrazin-1(2H)-yl}benzamide]",–,99.4%
